Data published in patent publication US5378846A, “1,2,3,4-tetrahydropyrrolo-[1,2-a]-pyrazine derivatives” (Russian-American Institute For New Drug Development, priority 1993, dated 1995).
Where “and” joins values, the source holds several entries; their conditions need not be identical. Equal values may be shown once.

Legend:
[1] = system: locomotor activity in mice; assay: Locomotor activity in mice (actometer); type: in vivo, outbred male mice; conditions: i.p.
Experimental: (§1) Compounds according to the present invention were checked for their influence on gross behaviour. The experiments described herein (Examples 11, 12, 13, 14, and 15) were carried out using outbred male mice weighing approximately 18-24 g. Each substance was administered intraperitoneally 45 min. before the experiment. Locomotor activity was estimated individually for each animal for 3 min. using an actometer `Era-1` (Russia).

[2] = system: duration of immobility in mice; assay: Behavioural despair test (forced swimming); type: in vivo, outbred male mice; conditions: for Influence on duration of immobility, in words: forced swimming; for The duration of immobility: i.p.
Experimental: as §1
The influence of compounds on behavioral despair was studied according to the model described by Porsolt et al., Arch. int. pharmacodyn.et ther., 228, 327-[…] (1977), which is incorporated herein by reference. Mice, when forced to swim in a cylinder of water without the possibility of escape, rapidly adopt a characteristic immobile posture. […] The only movements they make are those necessary to keep their heads above water.

Acute toxicity in mice = conditions: mouse, in vivo, ip, mice, i.p., lethality 24 hours later, Table 6 (range in brackets beside); read-out: LD50
Experimental: as §1
The compounds of the present invention were checked for acute toxicity in outbred male mice (18-22 g.). They were administered intraperitoneally and the lethality was estimated 24 hours later (Table 6). In the dose range of 500-1000 mg/kg i.p. Compound 1 caused death in 50% of the animals. Compound 1 is almost 5 times less toxic than other compounds.

[3] = system: rat behavior in Vogel conflict test; assay: Vogel conflict test (anxiolytic activity, punished responses in water-deprived rats); type: in vivo, outbred male albino rats; conditions: rat
Source text: Compounds according to the present invention were checked for their anxiolytic activity. Behaviour suppressed by punishment is a very reliable indicator of the anxiolytic activity of drugs. A variant of the conflict situation test was used to reveal anxiety in water-deprived rats whose licking was suppressed by shock (see Vogel et al., Phychopharmacologia, 21, 1-7 (1971); J. E. Barrett in Animal Models in Psychopharmacology, Advances in Pharmacological Sciences, 1991; and Birkhauser Verlag, Basel, p. 37.52, Molodavkin et al., Exper. Clin. Pharmacol., 56, (1993), which are incorporated herein by reference).
The experiments were carried out using outbred male albino rats (180-220 g). This experiment involved previous training of water-deprived rats to drink water from a trough. Next day electrical stimulation was given delivering 0.5 mA electric shocks through the trough and metal grid floor of the experimental chamber. A conflict situation was created by clashing motivations (survival and self defense). The degree of anxiolytic activity was estimated by the measurement of the amount of punished licks for 10 min. Each compound was administered intraperitoneally 45 min. before the conflict test.

motor behavior in mice [4] = assay: Horizontal wire test (coordination of movements and myorelaxation); conditions: mice
Experimental: (§2) The influence of Compound 1 on the motor behavior was studied according to a "rotating rod" test and a "horizontal wire" test in outbred male mice (18-22 g). A rotating rod (2 cm diameter and 5 rpm speed) was used. Acquisition was defined as the ability to remain on the rotating rod for 2 min. Each animal had two trials. According to the "horizontal wire" test a mouse was hung on the wire (0.3 cm. diameter, wire was fixed horizontally 40 cm above the floor) by the forepaws. The ability to pull the hind legs up to the wire for 2 min. was a criterion of test performance.

memory formation in rats = assay: Passive avoidance test, step-through (memory formation, retention); type: in vivo, outbred male albino rats; conditions: rat, 5.0 mg/kg i.p., retention 24 hours later, 3 min
Experimental: The influence of Compound 1 on memory formation was studied in a passive avoidance test, step-through paradigm (equipment of Laffaette Co., USA). The experiments were carried out on outbred male albino rats ([…]). Compound 1 and other drugs were administered intraperitoneally 45 min. before the passive avoidance training. The retention was tested 24 hours later learning (painful electroshock in the dark compartment) by the measurement of the time spent in the dark compartment for 3 min.

[5] = system: aggressive behavior in mice; assay: Antiaggressive activity (threshold of aggressive behavior, electrified floor); type: in vivo, outbred male mice
Experimental: as §1
The effect of Compound 1 on the threshold of the aggressive behavior was determined in the experiment on outbred mice (R. Tedesci et al., J. Pharmacol. Exp. Ther., 125, 28-34, (1959), which is incorporated herein by reference). The paired mice were placed on the electrified floor. The strength of the current, which provoked the fighting, was recorded.

[6] = Horizontal wire test (coordination of movements and myorelaxation); conditions: mouse, in vivo
Experimental: as §2

motor behavior in mice [7] = assay: Rotating rod test (coordination of movements and myorelaxation); conditions: mice
Experimental: as §2

[8] = as above; conditions: mouse, in vivo
Experimental: as §2

[9] = 2.0 mg/kg i.p., 45 min before test, Table 1

Row | Structure (SMILES) | The number of movements for 3 min., horizontal activity ([1]; 10.0 mg/kg) | The number of movements for 3 min., vertical activity ([1]; 10.0 mg/kg) | The number of movements for 3 min., horizontal activity ([1]; 20.0 mg/kg) | The number of movements for 3 min., vertical activity ([1]; 20.0 mg/kg) | Influence on duration of immobility, in words [2] | The duration of immobility ([2]; 10.0 mg/kg) | The duration of immobility ([2]; 20.0 mg/kg) [s] | LD50 at 24 h (Acute toxicity in mice) [mg/kg] | The number of punished responses [3, 9] | Influence on locomotor activity, in words [1] | other results
1 | CC(=O)N1CCn2c(CN3CCOCC3)ccc2C1 [Compound 4, 2-Acetyl-6-(Morpholinomethyl)-1,2,3,4-Tetrahydropyrrolo-[1,2-a]-Pyrazine] | 479.6 ± 22.8 | 17.6 ± 6.9 | 564.5 ± 22.5 | 24.7 ± 5.6 | did not show any activity | 197.3 ± 5.9 s | 202.7 ± 6.7 | 105 | 9.25 ± 1.75 | – | –
2 | CN(C)Cc1ccc2n1CCN(C(=O)c1ccccc1)C2 [Compound 5, 2-Benzoyl-6-(Dimethylaminomethyl)-1,2,3,4-Tetrahydropyrrolo-[1,2-]-Pyrazine] | 676.1 ± 34.5 | 36.1 ± 5.8 | 659.7 ± 32.7 | 36.6 ± 8.6 | reduced the duration of immobility | 189.4 ± 10.3 s and 218.3 ± 12.1 s | 216.4 ± 14.2 | 77 | 85.25 ± 32.04 | – | –
3 | O=C(O)C(=O)O.O=C(c1ccccc1)N1CCn2c(CN3CCCCC3)ccc2C1 [Compound 6, 2-Benzoyl-6-(Piperidinomethyl)-1,2,3,4-Tetrahydropyrrolo-[1,2-a]-Pyrazine Hydrooxalate] | 693.0 ± 25.3 | 16.5 ± 6.2 | 644.0 ± 30.4 | 19.9 ± 3.4 | reduced the duration of immobility | 201.7 ± 13.1 s | – | 389 | 30.75 ± 13.17 | – | The duration of immobility ([2]; 1.0 mg/kg): 184.3 ± 11.7 s
4 | O=C(O)C(=O)O.O=C(c1ccccc1)N1CCn2c(CN3CCOCC3)ccc2C1 [Compound 7, 2-Benzoyl-6-(Morpholinomethyl)-1,2,3,4-Tetrahydropyrrolo-[1,2-a]-Pyrazine Hydrooxalate] | 475.1 ± 11.2 | 13.7 ± 2.5 | 474.0 ± 14.7 | 12.4 ± 3.8 | did not show any activity | 169.3 ± 11.8 s | 147.8 ± 7.1 | 115 | 25.00 ± 5.99 | decrease locomotor activity | –
5 | CN1C(=O)CN=C(c2ccccc2)c2cc(Cl)ccc21 [Diazepam, reference compound] | – | – | – | – | – | – | – | – | – | – | Disturbances according to horizontal wire test, effect in % (motor behavior in mice [4]; dose 1.0): 20%; Disturbances according to horizontal wire test, effect in % (motor behavior in mice [4]; dose 2.0): 40%; Disturbances according to horizontal wire test, effect in % (motor behavior in mice [4]; dose 5.0): 80%; The time spent in dark compartment (memory formation in rats): 127.7 ± 21.1 s; The time spent in light compartment (memory formation in rats): 52.3 ± 11.3 s; The number of punished responses ([3]; i.p., dose 1.0 mg/kg, Table 2): 22.25 ± 10.89; The number of punished responses ([3]; i.p., dose 2.0 mg/kg, Table 2): 47.25 ± 22.49; Aggression threshold ([5]; 1.0 mg/kg i.p.): 45.4 ± 9.5 V; Aggression threshold ([5]; 5.0 mg/kg i.p.): 92.4 ± 15.6 V
6 | CC(=O)N1CCn2c(CN3CCCCC3)ccc2C1 [Compound 3, 2-Acetyl-6-(Piperidinomethyl)-1,2,3,4-Tetrahydropyrrolo-[1,2-]-Pyrazine] | 532.5 ± 42.1 | 8.1 ± 1.9 | 442.7 ± 30.3 | 9.2 ± 4.4 | increased the duration of immobility | 209.3 ± 6.5 s | 254.6 ± 10.9 | 414 | 22.00 ± 4.86 | decrease locomotor activity | –
7 | CC(=O)N1CCn2c(CN(C)C)ccc2C1 [Compound 2, hydrooxalate of 2-acetyl-6-(dimethylaminomethyl)-1,2,3,4-tetrahydropyrrolo-[1,2-a]-pyrazine] | 524.4 ± 36.9 | 10.0 ± 2.1 | 489.1 ± 9.7 | 22.4 ± 3.0 | increased the duration of immobility | 203.4 ± 14.1 s | 234.9 ± 12.6 | 340 | 63.00 ± 35.38 | decrease locomotor activity | –
8 | CN1CCN=C(c2ccccc2)c2cc(Cl)ccc21 [Medazepam, reference compound] | – | – | – | – | – | – | – | – | – | – | Disturbances according to horizontal wire test, effect in % (motor behavior in mice [4]; dose 2.5): 33%; Disturbances according to horizontal wire test, effect in % (motor behavior in mice [4]; dose 5.0): 50%; Disturbances according to horizontal wire test, effect in % (motor behavior in mice [4]; dose 10.0): 75%; TD50 [6]: 7.5 mg/kg; Disturbances according to rotating rod test, effect in % (motor behavior in mice [7]; dose 2.5): 40%; Disturbances according to rotating rod test, effect in % (motor behavior in mice [7]; dose 5.0): 50%; Disturbances according to rotating rod test, effect in % (motor behavior in mice [7]; dose 10.0): 96%; TD50 [8]: 5.2 mg/kg; The time spent in dark compartment (memory formation in rats): 142.6 ± 19.58 s; The time spent in light compartment (memory formation in rats): 37.4 ± 19.5 s; Aggression threshold ([5]; 5.0 mg/kg i.p.): 32.2 ± 5.25 V; Aggression threshold ([5]; 10.0 mg/kg i.p.): 43.1 ± 4.2 V
